Laboratory results as given in patent US20220281848A1, “PYRAZOLE-SUBSTITUTED PYRROLIDINONES AS HERBICIDES” (FMC Corporation, priority 2019, published 2022).

Experiments:
wheat = experiment: Test D post-emergence, wheat seed treated with a herbicide safener; assay type: in vivo; conditions: "Cereals" Postemergent
Experimental: (§1) A formulation containing 50 g/L of the test chemical was prepared by dissolving the active ingredient in a mixture of organic solvents and emulsifier, details of which are provided in the table. This formulation was then mixed with a small, variable amount of acetone to aid dissolution, before addition of a 0.2% v/v aqueous solution of an adjuvant, as the aqueous diluent, to form an aqueous spray solution which contains a predetermined concentration of the active ingredient.
(§2) This aqueous spray solution was then sprayed onto plants including maize and wheat that had been seed treated with a herbicide safener, after one day's cultivation (for pre-emergence) or after about 12 days' cultivation (for post-emergence). The plants were grown from seeds sown in standard soil, placed in a glasshouse under controlled conditions (at 24/18° C. or 20/16° C., day/night; 16 h light; 65% humidity). After spray application the plants were then grown in a glasshouse under the same conditions and watered twice daily. After 15 d for post-emergence and 20 DAA for pre-emergence the test was evaluated (100=total damage to plant; 0=no damage to plant).

plants = experiment: Test D post-emergence, other plants of Tables D2 and D4; assay type: in vivo; conditions: "Cereals" Postemergent, evaluated after 15 d
Experimental: as §1, §2

In the case of `CN1CC(c2cc(C(F)(F)F)n(C)n2)C(C(=O)Nc2cccc(F)c2F)C1=O` (racemic) [Compound 3], the “TRZAW damage rating (100=total damage to plant; 0=no damage to plant)” value (wheat; Rates 130, evaluated after 15 d) is reported as 0, the “TRZAW damage rating (100=total damage to plant; 0=no damage to plant)” value (wheat; Rates 250, evaluated after 15 d) is reported as 0 and the “TRZAW damage rating (100=total damage to plant; 0=no damage to plant)” value (wheat; Rates 500, evaluated after 15 d) is reported as 50. The “ALOMY damage rating (100=total damage to plant; 0=no damage to plant)” value (plants; Rates 130) was 0, the “ALOMY damage rating (100=total damage to plant; 0=no damage to plant)” value (plants; Rates 250) was 0 and the “ALOMY damage rating (100=total damage to plant; 0=no damage to plant)” value (plants; Rates 500) was 20. For the same molecule, the “AVEFA damage rating (100=total damage to plant; 0=no damage to plant)” value (plants; Rates 130) was 0, the “AVEFA damage rating (100=total damage to plant; 0=no damage to plant)” value (plants; Rates 250) was 0 and the “AVEFA damage rating (100=total damage to plant; 0=no damage to plant)” value (plants; Rates 500) was 30. For the same molecule, the “BEAVA damage rating (100=total damage to plant; 0=no damage to plant)” value (plants; Rates 130) was 0, the “BEAVA damage rating (100=total damage to plant; 0=no damage to plant)” value (plants; Rates 250) was 10 and the “BEAVA damage rating (100=total damage to plant; 0=no damage to plant)” value (plants; Rates 500) was 10. For the same molecule, the “BROTE damage rating (100=total damage to plant; 0=no damage to plant)” value (plants; Rates 130) was 0, the “BROTE damage rating (100=total damage to plant; 0=no damage to plant)” value (plants; Rates 250) was 0 and the “BROTE damage rating (100=total damage to plant; 0=no damage to plant)” value (plants; Rates 500) was 0. For the same molecule, the “BRSNN damage rating (100=total damage to plant; 0=no damage to plant)” value (plants; Rates 130) was 10, the “BRSNN damage rating (100=total damage to plant; 0=no damage to plant)” value (plants; Rates 250) was 10 and the “BRSNN damage rating (100=total damage to plant; 0=no damage to plant)” value (plants; Rates 500) was 0. For the same molecule, the “CHEAL damage rating (100=total damage to plant; 0=no damage to plant)” value (plants; Rates 130) was 0, the “CHEAL damage rating (100=total damage to plant; 0=no damage to plant)” value (plants; Rates 250) was 0 and the “CHEAL damage rating (100=total damage to plant; 0=no damage to plant)” value (plants; Rates 500) was 0. The “GALAP damage rating (100=total damage to plant; 0=no damage to plant)” value (plants; Rates 130) was 0, the “GALAP damage rating (100=total damage to plant; 0=no damage to plant)” value (plants; Rates 250) was 0 and the “GALAP damage rating (100=total damage to plant; 0=no damage to plant)” value (plants; Rates 500) was 0. For the same molecule, the “HORVW damage rating (100=total damage to plant; 0=no damage to plant)” value (plants; Rates 130) was 0, the “HORVW damage rating (100=total damage to plant; 0=no damage to plant)” value (plants; Rates 250) was 0 and the “HORVW damage rating (100=total damage to plant; 0=no damage to plant)” value (plants; Rates 500) was 30. The “KCHSC damage rating (100=total damage to plant; 0=no damage to plant)” value (plants; Rates 130) was 0, the “KCHSC damage rating (100=total damage to plant; 0=no damage to plant)” value (plants; Rates 250) was 0 and the “KCHSC damage rating (100=total damage to plant; 0=no damage to plant)” value (plants; Rates 500) was 0. For the same molecule, the “LOLPE damage rating (100=total damage to plant; 0=no damage to plant)” value (plants; Rates 130) was 0, the “LOLPE damage rating (100=total damage to plant; 0=no damage to plant)” value (plants; Rates 250) was 0 and the “LOLPE damage rating (100=total damage to plant; 0=no damage to plant)” value (plants; Rates 500) was 0. For the same molecule, the “POAAN damage rating (100=total damage to plant; 0=no damage to plant)” value (plants; Rates 130) was 0, the “POAAN damage rating (100=total damage to plant; 0=no damage to plant)” value (plants; Rates 250) was 20 and the “POAAN damage rating (100=total damage to plant; 0=no damage to plant)” value (plants; Rates 500) was 50. For the same molecule, the “POLCO damage rating (100=total damage to plant; 0=no damage to plant)” value (plants; Rates 130) was 0, the “POLCO damage rating (100=total damage to plant; 0=no damage to plant)” value (plants; Rates 250) was 0 and the “POLCO damage rating (100=total damage to plant; 0=no damage to plant)” value (plants; Rates 500) was 0. For the same molecule, the “SINAR damage rating (100=total damage to plant; 0=no damage to plant)” value (plants; Rates 130) was 0, the “SINAR damage rating (100=total damage to plant; 0=no damage to plant)” value (plants; Rates 250) was 0 and the “SINAR damage rating (100=total damage to plant; 0=no damage to plant)” value (plants; Rates 500) was 10. The “STEME damage rating (100=total damage to plant; 0=no damage to plant)” value (plants; Rates 130) was 0, the “STEME damage rating (100=total damage to plant; 0=no damage to plant)” value (plants; Rates 250) was 0 and the “STEME damage rating (100=total damage to plant; 0=no damage to plant)” value (plants; Rates 500) was 10. The “VERPE damage rating (100=total damage to plant; 0=no damage to plant)” value (plants; Rates 130) was 0, the “VERPE damage rating (100=total damage to plant; 0=no damage to plant)” value (plants; Rates 250) was 0 and the “VERPE damage rating (100=total damage to plant; 0=no damage to plant)” value (plants; Rates 500) was 60.
